From patent US20160296590A1, “METHOD OF TREATING OR PREVENTING EPILEPSY OR SEIZURES USING ONE OR MORE NEURAL REGENERATION PEPTIDES” (CURONZ HOLDINGS COMPANY LIMITED, priority 2013, published 2016)
“Also recorded” adds a separate entry of the source. Where no end group is shown, it is not given here. [ ]: non-standard residue; d: D form. Aib = CC(C)(N)C(=O)O

Assays:
Assay type in all cases: in vivo, rat
GAD-65 = experiment: Immunohistochemistry of GAD-65 expression after PTZ injection; conditions: 20 μg/kg; somatosensory cortex, CA1 and CA3 hippocampal areas; P<0.001
Method: (§1) Adult male wistar rats (200-250g) were housed under controlled conditions (ambient temperature=22° C., humidity=40%; 12-h light/dark cycle) with food and water ad libitum. Animals were age- and weight-matched and randomly received by intra peritoneal injection NRP2945 in saline (5, 10 or 20 μg/kg) or saline alone (control) thirty minutes before the i.p. injection of pentylenetetrazol (PTZ; 50 mg/kg dissolved in 0.9% saline). All experiments were carried out according to the protocol approved by the Animal Ethics Committee of Shefa Neuroscience Center, Tehran, Iran.
(§2) Animals were deeply anaesthetized with chloral hydrate and perfused transcardially with 200 ml of saline followed by 600 ml of 4% PFA solution. The brains were extracted and kept in 4% PFA for at least 4 days at 4° C. and were then processed for immunohistochemistry studies. The serial (8 μm) coronal sections were prepared. Three paraffin embedded sections in 1.8 to 3.3 mm posterior to the bregma from each animal were cleared and rehydrated through a series of xylol and alcohol and washed with phosphate buffered saline (PBS) three times and incubated in blockage solution (3% H2O2/methanol for 5 min). After washing in PBS, slides were boiled in sodium citrate buffer at 95° C, for 10 min. […]

GABAA receptor α subunit = experiment: Immunohistochemistry of GABAA receptor α subunit expression after PTZ injection; conditions: 20 μg/kg; somatosensory cortex and hippocampal CA1 area; P<0.001
Method: as §1, §2

dark neurons = experiment: Dark neuron count (toluidine blue, physical dissector) after PTZ-induced seizures; conditions: hippocampal CA1 and CA3 areas and somatosensory cortex, 5, 10 and 20 μg/kg
Method: as §1
The volume-weighted mean volume of normal neurons was calculated directly by point-sampled intercept on 10 uniform systematically and randomly sampled microscopic fields of the pyramidal layers of hippocampal areas CA1 and CA3as well as the somatosensory cortex. A lattice of test points on lines was superimposed randomly onto the traced nuclear profiles in each particular field. […] These lines produced point-sampled intercepts, the lengths of which were measured and cubed. […] For quantitative analysis of dark neurons, the physical dissector method was used. […]
Animals were deeply anaesthetised with chloral hydrate (3.5%; Sigma-Aldrich) and perfused transcardially with 200 ml of saline followed by 200 ml of a solution containing 1% paraformaldehyde (PFA). […] The magnification was calculated using an objective micrometer.

[1] = test system: PTZ-induced epileptiform burst discharges; experiment: Electrocorticogram (ECoG) recording of PTZ-induced epileptiform burst discharges
Method: Adult male wistar rats (200-250g) were housed under controlled conditions (ambient temperature=22° C., humidity=40%; 12-h light/dark cycle) with food and water ad libitum. Animals were age- and weight-matched and randomly received by intra peritoneal injection NRP2945 in saline (5, 10 or 20 μg/kg) or saline alone (control) thirty minutes before the i.p. injection of pentylenetetrazol (PTZ; 50 mg/kg dissolved in 0.9% saline). All experiments were carried out according to the protocol approved by the Animal Ethics Committee of Shefa Neuroscience Center, Tehran, Iran. Animals were anaesthetized with chloral hydrate 3.5% (dissolved in normal 0.9% saline; Sigma-Aldrich) and the head of each rat was placed in a stereotaxical instrument (Stoelting Instruments, USA). Epidural recording electrodes were stereotaxically implanted above the left and right somatosensory cortices (3.0 mm posteriorly to Bregma and 3.0 mm laterally from the midline) under continuous chloral hydrate anesthesia. The reference electrode is located at the nasal bone. ECoG was recorded via monopolar silver electrodes connected to an amplifier (EXT-02 F, NPI, Germany; with band-pass filters at […], sampling rate 10 kHz) and stored by a digital oscilloscope. ECoG recordings were performed for 30 minutes after receiving saline or NRP2945 (5, 10, 20 μg/kg) and 30 minutes after the injection of PTZ. Latency, duration, amplitude, and frequency of epileptic spikes activity were calculated using AxoScope 10 software (Axon Instruments, CA, USA).

GABAA receptor β subunit = experiment: Immunohistochemistry of GABAA receptor β subunit expression after PTZ injection; conditions: 20 μg/kg; only CA1 hippocampal region; P<0.001
Method: as §1, §2

PTZ-induced seizures = experiment: Behavioural test of PTZ-induced seizure attacks; conditions: for Behavioural test Severity: seizure score 0-6
Method: Adult male wistar rats (200-250g) were housed under controlled conditions (ambient temperature=22° C., humidity=40%; 12-h light/dark cycle) with food and water ad libitum. Animals were age- and weight-matched and randomly received by intra peritoneal injection NRP2945 in saline (5, 10 or 20 μg/kg) or saline alone (control) thirty minutes before the i.p. injection of pentylenetetrazol (PTZ; 50 mg/kg dissolved in 0.9% saline). All experiments were carried out according to the protocol approved by the Animal Ethics Committee of Shefa Neuroscience Center, Tehran, Iran. After each PTZ-injection, the convulsive behaviour of each rat was assessed for 30 min, and resultant seizures were scored as follows: 0=normal behaviour; 1=immobility; 2=rigid posture; 3=repetitive scratching, circling, or head bobbing; 4=forelimb clonus, rearing, and falling; 5=repeated occurrence of level four behaviour, 6=severe tonic-clonic behaviour or status epilepticus (Karimzadeh et al., 2013). Latency of seizure onset was defined as the average length of time in seconds between PTZ administration an initially detectable and seizure. A generalized seizure was characterised by symmetric forelimb and hind limb tonus, followed by hind limb clonus and subsequent jumping activity. Because some animals occasionally had more than one seizure, the seizure duration was assessed as the sum of durations of these multiple seizures.

normal neurons = experiment: Volume-weighted mean volume of normal neurons (stereology) after PTZ-induced seizures; design: Mean volume of normal neurons CA1 / Mean volume of normal neurons CA3 / Mean volume of normal neurons Cortex: unit not given here; conditions: for Mean volume of normal neurons CA1: hippocampal CA1; for Mean volume of normal neurons CA1 / Mean volume of normal neurons CA3 / Mean volume of normal neurons Cortex: rats; for Mean volume of normal neurons CA3: hippocampal CA3; for Mean volume of normal neurons Cortex: somatosensory cortex
Method: as §1
The volume-weighted mean volume of normal neurons was calculated directly by point-sampled intercept on 10 uniform systematically and randomly sampled microscopic fields of the pyramidal layers of hippocampal areas CA1 and CA3as well as the somatosensory cortex. A lattice of test points on lines was superimposed randomly onto the traced nuclear profiles in each particular field. Nuclei of neurons were marked and two isotropic lines from randomly selected directions were centred on this neuron and superimposed. The intersection of each line with the outer surface of the respective neuron's soma was marked. These lines produced point-sampled intercepts, the lengths of which were measured and cubed. The mean was multiplied by […], and finally all intercepts were averaged to give an estimate of the volume-weighted mean neuronal volume. For quantitative analysis of dark neurons, the physical dissector method was used. Ten pairs of sections, with […] distance, were collected from each brain. The first section of each pair was designated as the reference and the second one was used for comparison. On each pair of sections, at least 10 microscopic fields were selected by uniform systematic-random sampling in every area of interest. Using the unbiased frame and physical dissector counting rule, the counting of dark neurons in each field was carried out (Jafarian et al., 2010).
Animals were deeply anaesthetised with chloral hydrate (3.5%; Sigma-Aldrich) and perfused transcardially with 200 ml of saline followed by 200 ml of a solution containing 1% paraformaldehyde (PFA). After perfusion, all rats were decapitated and the brains were removed. The brains were kept in 1% PFA for at least 10 days and were then processed for histological studies as follows. The brain was cut into transverse sections of 8 µm thickness. Sections were stained with toluidine blue. The sections were selected by uniform systematic random sampling in every area of interest. Different areas (hippocampal CA1 and CA3 areas and somatosensory neocortex) were studied under a light microscope (BX51, Olympus, Japan) equipped with a digital camera. Digital photographs were taken using a 40x oil immersion objective lens (Olympus, Japan). The magnification was calculated using an objective micrometer.

[2] = 5 μg/kg i.p. 30 min before PTZ, anaesthetized rats
[3] = 10 μg/kg i.p. 30 min before PTZ, anaesthetized rats
[4] = 5 μg/kg i.p. 30 min before PTZ, rats
[5] = 10 μg/kg i.p. 30 min before PTZ, rats

## GlyArgArgAlaAlaProGlyArgAibGlyGly (GRRAAPGR[Aib]GG) [NRP2945, 11-residue neural regeneration peptide, derived from amino acid position 40-50 of human CAPS2]
GAD-65
  expression of GAD-65 immunoreactive neurons compared to control: significantly higher; also recorded: significant increase
GABAA receptor α subunit
  expression of GABAA receptor α subunit compared to control: higher expression; also recorded: significant enhancement
Dark neurons
  Density (production) of dark neurons in comparison to saline: significantly decreased
Dark neurons; listed as NRP 2945
  Density (production) of dark neurons in comparison to saline: inhibited
[1]; [2]
  ECoG Amplitude: 1.1 ± 0.04 mV
  ECoG Duration: 60 ± 1.2 s
  ECoG Frequency: 4.7 ± 0.3 per min
  ECoG Latency: 326 ± 24 s
[1]; [3]
  ECoG Amplitude: 0.84 ± 0.1 mV
  ECoG Duration: 60 ± 2.1 s
  ECoG Frequency: 6.67 ± 0.9 per min
  ECoG Latency: 417 ± 37 s
[1]; 20 μg/kg i.p. 30 min before PTZ, anaesthetized rats
  development of epileptiform field potentials: completely prevented
[1]; 5 and 10 μg/kg i.p., P≦0.001
  amplitude of epileptiform field potentials compared to control: significantly smaller; also recorded: decreased
  duration of epileptiform field potentials compared to control: significantly shorter; also recorded: decreased
  latency time to onset of first spike waves compared to control: increased
  repetition rate (frequency) of epileptiform field potentials compared to control: significantly lower; also recorded: decreased
GABAA receptor β subunit
  expression of GABAA receptor β subunit compared to control: higher; also recorded: enhanced
PTZ-induced seizures; 5 μg/kg i.p. 30 min before PTZ 50 mg/kg i.p., rats
  Behavioural test Latency: 230.2 ± 10.6 s
PTZ-induced seizures; [4]
  Behavioural test Duration: 35.83 ± 5.9 s
  Behavioural test Severity: 3.67 ± 0.21
PTZ-induced seizures; 10 μg/kg i.p. 30 min before PTZ 50 mg/kg i.p., rats
  Behavioural test Latency: 150.2 ± 7.4 s
PTZ-induced seizures; [5]
  Behavioural test Duration: 37.67 ± 7.3 s
  Behavioural test Severity: 3.67 ± 0.21
PTZ-induced seizures; 20 μg/kg i.p. 30 min before PTZ, rats
  PTZ-induced seizures or convulsions: completely prevented
PTZ-induced seizures; 5 and 10 μg/kg i.p.
  latency of seizure attacks compared to control: not affecting
  severity of seizure attacks compared to control: not affecting
PTZ-induced seizures; 5 and 10 μg/kg i.p., p<0.05, n=12
  total duration of seizure attacks compared to control: reduced
Normal neurons; 5 μg/kg
  mean volume of normal neurons after PTZ-induced seizures compared to control: did not affect
Normal neurons; 10 and 20 μg/kg, CA1, CA3 and somatosensory cortex, P≦0.001
  mean volume-weighted volume of normal neurons compared to control: higher; also recorded: larger
Normal neurons; 5 μg/kg i.p. before PTZ
  Mean volume of normal neurons CA1: 380.9 ± 7.1
  Mean volume of normal neurons CA3: 387.9 ± 3.2
  Mean volume of normal neurons Cortex: 340.8 ± 3.1
Normal neurons; 10 μg/kg i.p. before PTZ
  Mean volume of normal neurons CA1: 413.1 ± 4.4
  Mean volume of normal neurons CA3: 438.6 ± 5.6
  Mean volume of normal neurons Cortex: 395.7 ± 6.1
Normal neurons; 20 μg/kg i.p. before PTZ
  Mean volume of normal neurons CA1: 451.9 ± 5.5
  Mean volume of normal neurons CA3: 474.1 ± 5.1
  Mean volume of normal neurons Cortex: 387.9 ± 7.5
